One may read the IC50 as the midpoint of a concentration-inhibition curve.

The assay has as its target T1, full-length recombinant human NEK7 (Homo sapiens, UniProt Q8TDX7).
T1 construct: full-length recombinant human NEK7; GST (N); purchased SignalChem NO9-10G; host or cells: Sf9 insect cells (baculovirus)
As to the kind of experiment: NEK7 enzymatic assay. The assay is classed as biochemical. As to conditions: recombinant human NEK7, casein substrate, radiolabelled ATP. On the procedure: Casein substrate (from bovine milk, hydrolyzed and partially dephosphorylated mixture of α, β and κ caseins, obtained from Sigma Aldrich, catalogue #C4765, diluted in distilled water to a final concentration of 1 mg/mL) and full-length recombinant human NEK7 (expressed by baculovirus in Sf9 insect cells using a N-terminal GST tag, obtained from SignalChem, catalogue #NO9-10G, 0.1 μg/μL) were mixed in assay buffer (20 mM Hepes pH 7.5, 10 mM MgCl2, 1 mM EGTA, 0.02% Brij35, 0.02 mg/ml BSA, 0.1 mM Na3VO4, 2 mM DTT, 1% DMSO). Compounds of interest (serial 3-fold dilution in DMSO from 10 μM to 0.5 nM) or vehicle (1% DMSO) were dispensed into the kinase reaction mixture by Acoustic technology (Echo550; nanoliter range). After incubation at room temperature for 20 minutes, the kinase reaction was initiated by addition of [^33P]-ATP (specific activity 10 μCi/μl) and the mixture was incubated at room temperature for 2 hours. The reaction was then stopped by spotting the reaction mixture on strips of phosphocellulose P81 paper. Following washing, the radioactivity of the P81 paper was measured and kinase activity data were expressed as the percent remaining kinase activity in test samples compared to vehicle reactions. IC50 values and curve fits were obtained using Prism (GraphPad Software).
Casein substrate (from bovine milk, hydrolyzed and partially dephosphorylated mixture of α, β and κ caseins, obtained from Sigma Aldrich, catalogue #C4765, diluted in distilled water to a final concentration of 1 mg/mL, assay concentration 20 μM) and full-length recombinant human Nek7 (expressed by baculovirus in Sf9 insect cells using a N-terminal GST tag, obtained from SignalChem, catalogue #NO9-10G, 0.1 μg/μL, assay concentration 70 nM) were mixed in assay buffer (20 mM Hepes pH 7.5, 10 mM MgCl2, 1 mM EGTA, 0.02% Brij35, 0.02 mg/ml BSA, 0.1 mM […], 2 mM DTT, 1% DMSO). Compounds of interest (in DMSO, serial 3-fold dilution from 10 μM to 0.5 nM) or control (1% DMSO) were dispensed into the kinase reaction mixture by Acoustic technology (Echo550; nanoliter range). After incubation at room temperature for 20 minutes, the kinase reaction was initiated by addition of [^32P]-ATP (Specific activity 10 μCi/μl) and the mixture was incubated at room temperature for 2 hours. The reaction was then stopped by spotting the reaction mixture on strips of phosphocellulose P81 paper. Following washing, the radioactivity of the P81 paper was measured and kinase activity data were expressed as the percent remaining kinase activity in test samples compared to vehicle (dimethyl sulfoxide) reactions. IC50 values and curve fits were obtained using Prism (GraphPad Software).

T1 sequence (Q8TDX7 whole entry): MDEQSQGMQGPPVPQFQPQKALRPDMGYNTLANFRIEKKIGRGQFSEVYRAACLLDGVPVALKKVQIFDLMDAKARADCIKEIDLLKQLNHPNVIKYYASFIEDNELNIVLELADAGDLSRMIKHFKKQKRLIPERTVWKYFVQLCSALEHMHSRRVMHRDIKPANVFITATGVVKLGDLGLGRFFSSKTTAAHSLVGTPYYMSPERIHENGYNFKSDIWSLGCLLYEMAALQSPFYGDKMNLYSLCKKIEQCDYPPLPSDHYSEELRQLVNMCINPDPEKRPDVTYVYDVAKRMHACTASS

As to `CCN1CCN(Cc2ccc(NC(=O)Nc3ccc(-c4cn(C5CC5)c5ncnc(N)c45)cc3F)cc2C(F)(F)F)CC1` [Example I-41, 1-(4-(4-amino-7-cyclopropyl-7H-pyrrolo[2,3-d]pyrimidin-5-yl)-2-fluorophenyl)-3-(4-((4-ethylpiperazin-1-yl)methyl)-3-(trifluoromethyl)phenyl)urea], the IC50 is < 100 nM. Consider `CCN1CCC(Oc2ccc(NC(=O)Nc3ccc(-c4cn(C5CC5)c5ncnc(N)c45)cc3F)cc2C(F)(F)F)CC1` [Example I-88, 1-(4-(4-amino-7-cyclopropyl-7H-pyrrolo[2,3-d]pyrimidin-5-yl)-2-fluorophenyl)-3-(4-((1-ethylpiperidin-4-yl)oxy)-3-(trifluoromethyl)phenyl)urea], for which the IC50 is < 100 nM. For `Nc1ncnc2c1c(-c1ccc(NC(=O)Nc3ccc(CN4CCCCC4)c(C(F)(F)F)c3)c(F)c1)cn2C1CC1` [Example I-95, 1-(4-(4-amino-7-cyclopropyl-7H-pyrrolo[2,3-d]pyrimidin-5-yl)-2-fluorophenyl)-3-(4-(piperidin-1-ylmethyl)-3-(trifluoromethyl)phenyl)urea] the value was 500 to 2000 nM; for `CCN1CCN(Cc2ccc(NC(=O)Nc3ccc(-c4cn(C5CC5)c5ncnc(N)c45)cc3Cl)cc2C(F)(F)F)CC1` [Example I-55, 1-(4-(4-amino-7-cyclopropyl-7H-pyrrolo[2,3-d]pyrimidin-5-yl)-2-chlorophenyl)-3-(4-((4-ethylpiperazin-1-yl)methyl)-3-(trifluoromethyl)phenyl)urea], 100 to 500 nM; for `Nc1ncnc2c1c(-c1ccc(NC(=O)Nc3ccc(OC4CCN(C5COC5)CC4F)c(C(F)(F)F)c3)c(F)c1)cn2C1CC1` (single isomer, unassigned) [Example I-91, 1-(4-(4-amino-7-cyclopropyl-7H-pyrrolo[2,3-d]pyrimidin-5-yl)-2-fluorophenyl)-3-(4-((3-fluoro-1-(oxetan-3-yl)piperidin-4-yl)oxy)-3-(trifluoromethyl)phenyl)urea], 100 to 500 nM. Turning to `Nc1ncnc2c1c(-c1ccc(NC(=O)Nc3ccc(CN4CCC(F)(F)CC4)c(C(F)(F)F)c3)c(F)c1)cn2C1CC1` [Example I-85, 1-(4-(4-amino-7-cyclopropyl-7H-pyrrolo[2,3-d]pyrimidin-5-yl)-2-fluorophenyl)-3-(4-((4,4-difluoropiperidin-1-yl)methyl)-3-(trifluoromethyl)phenyl)urea], the IC50 was > 2000 nM.

As to `Cc1cc(NC(=O)Nc2ccc(-c3nn(C(C)C)c4ncnc(N)c34)cc2)ccc1N1CCOCC1` [Example I-22, 1-(4-(4-amino-1-isopropyl-1H-pyrazolo[3,4-d]pyrimidin-3-yl)phenyl)-3-(3-methyl-4-morpholinophenyl)urea], the IC50 lay within 100 to 500 nM. Next, `CC1CN(C)CCN1Cc1ccc(NC(=O)Nc2ccc(-c3cn(C4CC4)c4ncnc(N)c34)cc2F)cc1C(F)(F)F` (stereo not drawn) [Example I-70, 1-(4-(4-amino-7-cyclopropyl-7H-pyrrolo[2,3-d]pyrimidin-5-yl)-2-fluorophenyl)-3-(4-((2,4-dimethylpiperazin-1-yl)methyl)-3-(trifluoromethyl)phenyl)urea]: 100 to 500 nM; `CN1CCN(Cc2ccc(NC(=O)Nc3ccc(-c4nn(CCCCCO)c5ncnc(N)c45)cc3F)cc2C(F)(F)F)CC1` [Example I-103, 1-(4-(4-amino-1-(5-hydroxypentyl)-1H-pyrazolo[3,4-d]pyrimidin-3-yl)-2-fluorophenyl)-3-(4-((4-methylpiperazin-1-yl)methyl)-3-(trifluoromethyl)phenyl)urea]: < 100 nM. Regarding `Nc1ncnc2c1c(-c1ccc(NC(=O)Nc3ccc(CN4CCOCC4)cc3F)c(F)c1)cn2C1CC1` [Example I-1, 1-(4-(4-amino-7-cyclopropyl-7H-pyrrolo[2,3-d]pyrimidin-5-yl)-2-fluorophenyl)-3-(2-fluoro-4-(morpholinomethyl)phenyl)urea], the IC50 is > 2000 nM. For `CN1CCN(Cc2ccc(NC(=O)Nc3ccc(-c4cn(C5CCC5)c5ncnc(N)c45)cc3F)cc2C(F)(F)F)CC1` [Example I-19, 1-(4-(4-amino-7-cyclobutyl-7H-pyrrolo[2,3-d]pyrimidin-5-yl)-2-fluorophenyl)-3-(4-((4-methylpiperazin-1-yl)methyl)-3-(trifluoromethyl)phenyl)urea] the value was 100 to 500 nM.

Take `Nc1ncnc2c1c(-c1ccc(NC(=O)Nc3ccc(OC4CCN(C5COC5)CC4F)c(C(F)(F)F)c3)c(F)c1)cn2C1CC1` (single isomer, unassigned) [Example I-92, 1-(4-(4-amino-7-cyclopropyl-7H-pyrrolo[2,3-d]pyrimidin-5-yl)-2-fluorophenyl)-3-(4-((3-fluoro-1-(oxetan-3-yl)piperidin-4-yl)oxy)-3-(trifluoromethyl)phenyl)urea]: the IC50 fell in the range of 100 to 500 nM.

On to `CN1CCN(Cc2cc(NC(=O)Nc3ccc(-c4cn(C5CC5)c5ncnc(N)c45)cc3F)cc(C(F)(F)F)c2)CC1` [Example I-93, 1-(4-(4-amino-7-cyclopropyl-7H-pyrrolo[2,3-d]pyrimidin-5-yl)-2-fluorophenyl)-3-(3-((4-methylpiperazin-1-yl)methyl)-5-(trifluoromethyl)phenyl)urea], for which the IC50 was < 100 nM. On to `CN1CCN(Cc2ccc(NC(=O)Nc3ccc(-c4cn(C5CN(C)C5)c5ncnc(N)c45)cc3F)cc2C(F)(F)F)CC1` [Example I-104, 1-(4-(4-amino-7-(1-methylazetidin-3-yl)-7H-pyrrolo[2,3-d]pyrimidin-5-yl)-2-fluorophenyl)-3-(4-((4-methylpiperazin-1-yl)methyl)-3-(trifluoromethyl)phenyl)urea], for which the IC50 is < 100 nM. In the case of `Nc1ncnc2c1c(-c1ccc(NC(=O)Nc3ccc(CN4CCOCC4)c(F)c3)c(F)c1)cn2C1CC1` [Example I-2, 1-(4-(4-amino-7-cyclopropyl-7H-pyrrolo[2,3-d]pyrimidin-5-yl)-2-fluorophenyl)-3-(3-fluoro-4-(morpholinomethyl)phenyl)urea], the IC50 was > 2000 nM. `CN1CC2CC1CN2Cc1ccc(NC(=O)Nc2ccc(-c3cn(C4CC4)c4ncnc(N)c34)cc2F)cc1C(F)(F)F` (stereo not drawn) [Example I-64, 1-(4-(4-amino-7-cyclopropyl-7H-pyrrolo[2,3-d]pyrimidin-5-yl)-2-fluorophenyl)-3-(4-((5-methyl-2,5-diazabicyclo[2.2.1]heptan-2-yl)methyl)-3-(trifluoromethyl)phenyl)urea]: the IC50 was < 100 nM. In the case of `CN1CCN(Cc2ccc(NC(=O)Nc3ncc(-c4cn(C5CC5)c5ncnc(N)c45)cc3F)cc2C(F)(F)F)CC1` [Example I-67, 1-(5-(4-amino-7-cyclopropyl-7H-pyrrolo[2,3-d]pyrimidin-5-yl)-3-fluoropyridin-2-yl)-3-(4-((4-methylpiperazin-1-yl)methyl)-3-(trifluoromethyl)phenyl)urea], the IC50 was in the range of 100 to 500 nM. Next, `Nc1ncnc2c1c(-c1ccc(NC(=O)Nc3ccc(CN4CCN(C5COC5)CC4)c(C(F)(F)F)c3)c(F)c1)cn2C1CC1` [Example I-86, 1-(4-(4-amino-7-cyclopropyl-7H-pyrrolo[2,3-d]pyrimidin-5-yl)-2-fluorophenyl)-3-(4-((4-(oxetan-3-yl)piperazin-1-yl)methyl)-3-(trifluoromethyl)phenyl)urea]: 100 to 500 nM.

(Values after patent US20240317758A1 (Halia Therapeutics, Inc., priority 2021, published 2024).)
